Counter-ions that a name gives are not always drawn.
How the values were obtained:
[1] = system: cultured human mast cells (CHMC); experiment: CHMC low cell density IgE activation: tryptase assay; format: cell-based; details: anti-IgE
Method in brief: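 Cells pelleted, taken up in warm MT, plated at 1000-1500/well, held 1 hr 37° C. Anti-IgE added, 30 min 37° C. Plates spun; supernatant mixed with tryptase substrate, 30 min RT.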

[2] = system: cultured human mast cells (CHMC); experiment: CHMC low cell density ionomycin activation: tryptase assay; format: cell-based

Row | Structure (SMILES) | IC50 [1] | IC50 [2] | IC50 ([1]; Homo sapiens, Mast cell) | IC50 ([2]; Homo sapiens, Mast cell) | IC50 ([2]; Acetic Acid Salt)
1 | CNC(=O)COc1ccc(Nc2ncc(C#N)c(Nc3cccc(O)c3)n2)cc1 [R925844, 5-Cyano-N4-(3-hydroxyphenyl)-N2-[4-(N-methylamino)carbonylmethyleneoxyphenyl]-2,4-pyrimidinediamine] | 5100 nM | > 10 µM | – | – | –
2 | CNC(=O)COc1ccc(Nc2nc(Nc3ccc4c(c3)OCCO4)ncc2Br)cc1 [R925851, 5-Bromo-N2-(3,4-ethylenedioxyphenyl)-N4-[4-(N-methylamino)carbonylmethyleneoxyphenyl]-2,4-pyrimidinediamine] | 925 nM | > 10 µM | – | – | –
3 | CCOC(=O)CSc1ccc(Nc2ncc(F)c(Nc3ccc4c(c3)OCCO4)n2)cn1 [R926727, N2-[2-(Ethoxycarbonylmethylenethio)pyridin-5-yl]-N4-(3,4-ethylenedioxyphenyl)-5-fluoro-2,4-pyrimidinediamine] | 387 nM | > 10 µM | – | – | –
4 | COc1cccc(CNC(=O)COc2ccc(Nc3nc(Nc4cccc(O)c4)ncc3Br)cc2)c1 [R925843, 5-Bromo-N2-(3-hydroxyphenyl)-N4-[4-(N-3-methoxybenzylamino)carbonylmethyleneoxyphenyl]-2,4-pyrimidinediamine] | > 10000 nM | > 10 µM | – | – | –
5 | CNC(=O)COc1cccc(Nc2ncc(F)c(Nc3ccc(OC)c(OC)c3)n2)c1 [R926733, N4-(3,4-Dimethoxyphenyl)-5-fluoro-N2-[3-(N-methylamino)carbonylmethyleneoxyphenyl]-2,4-pyrimidinediamine] | 1500 nM | > 10 µM | – | – | –
6 | Fc1cnc(Nc2ccc3c(c2)OCCO3)nc1Nc1ccc(OCCN2CCOCC2)cc1 [R926711, N2-(3,4-Ethylenedioxyphenyl)-5-fluoro-N4-[4-[2-(N-morpholino)ethyleneoxy]phenyl]-2,4-pyrimidinediamine] | 1240 nM | > 10 µM | – | – | –
7 | CNC(=O)COc1cccc(Nc2ncc(F)c(Nc3ccc4[nH]ncc4c3)n2)c1 [R935279, 5-Fluoro-N4-(indazoline-5-yl)-N2-[3-(N-methylaminocarbonylmethyleneoxy)phenyl]-2,4-pyrimidinediamine] | 889 nM | > 10 µM | – | – | –
8 | CN(C)C(=O)c1cc2cc(Nc3ncc(F)c(Nc4cccc(O)c4)n3)ccc2o1 [R926718, 5-Fluoro-N4-(3-hydroxyphenyl)-N2-[2-(N-dimethylamino)carbonylbenzofuran-5-yl]-2,4-pyrimidinediamine] | 1830 nM | > 10 µM | – | – | –
9 | Nc1cccc(Nc2nc(Nc3cccc(NC(=O)CCC(C(=O)O)N4C(=O)c5ccccc5C4=O)c3)ncc2F)c1 (racemic) [R950251, (±)-N4-(3-Aminophenyl)-5-fluoro-N2-(3-(3-carboxy-3-D,L-N-phtaloylamino)propylenecarbonylaminophenyl)-2,4-pyrimidinediamine] | > 10000 nM | > 10 µM | – | – | –
10 | CCOC(=O)CCn1ncc2ccc(Nc3nc(Nc4cccc(OC(C)C)c4)ncc3F)cc21 [R935289, N4-[1-(2-Ethoxycarbonylethyl)indazoline-6-yl]-5-fluoro-N2-(isopropoxyphenyl)-2,4-pyrimidinediamine] | 1690 nM | > 10 µM | – | – | –
11 | CN1CCN(C(=O)CNc2cccc(Nc3ncc(F)c(Nc4cccc(NCCO)c4)n3)c2)CC1 [R950240, N4-[3-(2-Hydroxyethyleamino)phenyl]-N2-[3-(N—(N-methyl)-piperazino)carbonylmethyleneaminophenyl]-5-fluoro-2,4-pyrimidinediamine] | 1770 nM | > 10 µM | – | – | –
12 | CNC(=O)COc1cccc(Nc2ncc(F)c(Nc3ccc4c(c3)OCCO4)n2)c1 [R926826, N4-(3,4-Ethylenedioxyphenyl)-5-fluoro-N2-[3-(N-methylamino)carbonylmethyleneoxyphenyl]-2,4-pyrimidinediamine Trifluoro Acetic Acid Salt] | 613 nM | – | – | – | > 10 µM
13 | Oc1cccc(Nc2nc(NC3CCN(Cc4ccccc4)CC3)ncc2F)c1 [R940264, N2-[4-(N-Benzylpiperidino)]-5-fluoro-N4-(3-hydroxyphenyl)-2,4-pyrimidinediamine] | 10000 nM | > 10 µM | – | – | –
14 | Cn1nnc(COc2ccc(Nc3nccc(Nc4cccc(O)c4)n3)cc2)n1 [R920910, N4-(3-Hydroxyphenyl)-N2-[4-(2-methyl-1,2,3,4-tetrazol-5-yl)methyleneoxyphenyl]-2,4-pyrimidineamine] | 751 nM | 7.92 µM | – | – | –
15 | Cc1ccc(Nc2ncc(F)c(Nc3ccc(C)c(O)c3)n2)cc1O [R926341, N2,N4-Bis(-3-hydroxy-4-methylphenyl)-5-fluoro-2,4-pyrimidinediaminediamine] | 875 nM | > 10 µM | – | – | –

Second part, led by results:

Row | IC50 [1] | IC50 [2] | IC50 ([1]; Homo sapiens, Mast cell) | IC50 ([2]; Homo sapiens, Mast cell) | Structure (SMILES) | IC50 ([2]; Acetic Acid Salt)
16 | 2220 nM | 9.42 µM | – | – | CCOC(=O)C(C)(C)c1ccc(Nc2nc(Nc3ccc4c(c3)OCCO4)ncc2F)cc1 [R935148, N2-(3,4-Ethylenedioxyphenyl)-N4-[4-[(1-ethoxycarbonyl-1-methyl)ethyl]phenyl]-5-fluoro-2,4-pyrimidinediamine] | –
17 | 571 nM | 8.77 µM | – | – | Cc1nc(COc2cccc(Nc3nc(Nc4cccc(O)c4)ncc3F)c2)no1 [R945132, 5-Fluoro-N2-(3-hydroxyphenyl)-N4-[3-(5-methyl-1,2,4-oxadiazol-3-yl)methyleneoxyphenyl]-2,4-pyrimidinediamine] | –
18 | > 10000 nM | > 10 µM | – | – | CCOC(=O)COc1cccc(Nc2ncc(C(=O)OCC)c(Nc3ccc4c(c3)OC(F)(F)C(F)(F)O4)n2)c1 [R926799, N2-(3-Ethoxycarbonylmethyleneoxyphenyl)-5-ethoxycarbonyl-N4-(3,4-tetrafluoroethylenedioxyphenyl)-2,4-pyrimidinediamine] | –
19 | 774 nM | > 10 µM | – | – | CNC(=O)COc1cccc(Nc2ncc(F)c(Nc3cc(C(=O)OC)cc(C(F)(F)F)c3)n2)c1 [R926862, 5-Fluoro-N2-[3-(N-methylamino)carbonylmethyleneoxyphenyl]-N4-(3-methoxycarbonyl-5-trifluoromethylphenyl)-2,4-pyrimidinediamine] | –
20 | > 10000 nM | > 10 µM | – | – | CCCCNC(=O)COc1ccc(Nc2ncc(C#N)c(Nc3ccc(OCC(=O)NCCCC)cc3)n2)cc1 [R925860, N2,N4-Bis[4-(N-n-butylamino)carbonylmethyleneoxyphenyl]-5-cyano-2,4-pyrimidinediamine] | –
21 | 996 nM | > 10 µM | – | – | CN(C)CCOc1ccc(Nc2ncc(F)c(Nc3cccc(O)c3)n2)cc1 [R909236, N2-[4-(2-N,N-Dimethylamino)ethoxyphenyl]-5-fluoro-N4-(3-hydroxyphenyl)-2,4-pyrimidinediamine] | –
22 | – | – | > 10000 nM | > 10 µM | COc1ccc(Nc2ncc([N+](=O)[O-])c(Nc3ccc(OC)c(OC)c3)n2)cc1OC [R940089, N2,N4-Bis-(3,4-dimethoxyphenyl)-5-nitro-2,4-pyrimidinediamine] | –
23 | 4580 nM | > 10 µM | – | – | CCOC(=O)c1cnc(Nc2cccc(OCC(=O)NC)c2)nc1Nc1ccc2c(c1)OCCO2 [R926800, 5-Ethoxycarbonyl-N4-(3,4-ethylenedioxyphenyl)-N2-[3-(N-methylamino)carbonylmethyleneoxyphenyl]-2,4-pyrimidinediamine] | –
24 | > 10000 nM | > 10 µM | – | – | N#Cc1cnc(Nc2ccc(OCC(=O)NCC(O)CO)cc2)nc1Nc1cccc(O)c1 (stereo not drawn) [R925846, 5-Cyano-N4-(3-hydroxyphenyl)-N2-[4-(N-2,3-dihydroxypropylamino)carbonylmethyleneoxyphenyl]-2,4-pyrimidinediamine] | –
25 | 1500 nM | 7.5 µM | – | – | COC(=O)C(C)Oc1ccc(Nc2ccnc(Nc3ccc(OC(C)C(=O)OC)cc3)n2)cc1 (racemic) [R926257, (±)-N2,N4-Bis[4-methoxycarbonyhalpha-methypmethyleneoxyphenyl]-2,4-pyrimidinediamine] | –
26 | 136 nM | > 10 µM | – | – | CC(C)NC(=O)COc1cccc(Nc2ncc(F)c(Nc3ccc4c(c3)NCCO4)n2)c1 [R909254, N4-(1,4-Benzoxazin-6-yl)-N2-[3-(N-isopropylamino)carbonylmethyleneoxyphenyl]-5-fluoro-2,4-pyrimidinediamine] | –
27 | 1520 nM | > 10 µM | – | – | O=C(COc1cccc(Nc2ncc(F)c(Nc3ccc4c(c3)OCCO4)n2)c1)N1CCOCC1 [R926484, N4-(3,4-Ethylenedioxyphenyl)-5-fluoro-N2-[3-(N-morpholino)carbonylmethyleneoxyphenyl]-2,4-pyrimidinediamine] | –
28 | 44 nM | 7.4 µM | – | – | O=C1Nc2cc(Nc3nc(Nc4cccc(O)c4)ncc3F)ccc2OC1(F)F [R940349, N4-[(2,2-Difluoro-4H-benzo[1,4]oxazin-3-one)-6-yl]-5-fluoro-N2-(3-hydroxyphenyl)-2,4-pyrimidinediamine] | –
29 | 269 nM | > 10 µM | – | – | Fc1cnc(Nc2ccc3c(c2)OCCCO3)nc1Nc1ccc2c(c1)OCCCO2 [R935162, N2,N4-Bis(3,4-propylenedioxyphenyl)-5-fluoro-2,4-pyrimidinediamine] | –
30 | 599 nM | > 10 µM | – | – | CNC(=O)COc1cccc(Nc2ncc(F)c(Nc3cccc(C(=NO)c4ccccc4)c3)n2)c1 [R950374, N4-(3-Phenylcarbonyloximephenyl)-5-fluoro-N2-[3-(N-methylamino)carbonylmethyleneoxyphenyl]-2,4-pyrimidinediamine] | –
31 | 2150 nM | > 10 µM | – | – | CSc1nc(Nc2ccc3c(c2)OCCO3)nc(Nc2ccc3c(c2)OCCO3)c1Cl [R926475, N2,N4-Bis(3,4-ethyelenedioxyphenyl)-5-chloro-6-thiomethyl-2,4-pyrimidinediamine] | –
32 | 760 nM | > 10 µM | – | – | CCOC(=O)COc1ccc(Nc2ncc(F)c(Nc3ccc(OCC(=O)OCC)c(Cl)c3)n2)cc1Cl [R926676, N2,N4-Bis[3-chloro-4-(ethoxycarbonylmethyleneoxy)phenyl]-5-fluoro-2,4-pyrimidinediamine] | –
33 | 909 nM | 1.8 µM | – | – | Oc1cccc(Nc2nc(Nc3ccc(OCc4nc(-c5ccccc5)no4)cc3)ncc2F)c1 [R935134, 5-Fluoro-N4-(3-hydroxyphenyl)-N2-[4-(3-phenyl-1,2,4-oxadiazol-5-yl)methyleneoxyphenyl]-2,4-pyrimidinediamine] | –

Source: patent US9499493B2, “2,4-pyrimidinediamine compounds and their uses” (Rigel Pharmaceuticals, Inc., priority 2002, dated 2016)
